Common to all, as to assay type: biochemical
The target of test [1] is T1, IAPP (Homo sapiens, UniProt P10997).
T1 sequence (P10997 34-70 limits assumed): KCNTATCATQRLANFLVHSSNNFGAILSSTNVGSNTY
As to the kind of experiment: Thioflavine T spectroscopy, rate of amyloid fibril formation. The following applies: ThT 62.5 μM; excitation 440 nm, emission 482 nm. On the procedure:
Detection of ThT fluorescence can be used as a sensitive assay for amyloid fibril formation under different conditions. This assay has been used in experiments to determine the effects of compounds of the invention on amyloid fibril formation.
Human IAPP was dissolved in 40% trifluoroethanol and freeze-dried into conveniently-sized aliquots. IAPP was prepared immediately before the measurements by dissolving in 40% 1,1,1,3,3,3-hexafluoro-2-propanol (HFIP) in water to maintain the peptide in alpha helical conformation and soluble. A stock solution of ThT (2.5 mM) was prepared, 7.9 mg in 10 mL Tris-HCl pH 7.0 and filtered (0.22 μm). Solutions were kept in the dark until use. Fluorescence was examined at 440 nm excitation (slit 5 nm), and emission at 482 nm (slit 10 nm) with stirring. […] of ThT stock (final concentration 62.5 μM) was added to peptide sample and made up to 1 mL in the cuvette. The sample was stirred for 5 min. before taking a reading. Measurements were made at an initial time point (5 min. from sample preparation), at intervals over the next 4-6 h and after overnight incubation at room temperature.

The target in test [2] is T1, IAPP. As to the kind of experiment: Circular dichroism analysis of IAPP-associated fibril formation (Example 7). Further details: add 10 μL of 10 mg/mL IAPP stock solution (final 100 ng peptide). The following applies: for Conformation at 24 h / CD at 24 h / Conformation at 48 h / CD at 48 h / Conformation at T0: molar ratio 1:5 peptide:compound; for CD at 24 h / CD at 48 h: more positive = less β-sheet; for Activity (change in ellipticity at 218 nm): molar ratio 1:10 peptide:compound. The procedure: Circular dichroism analysis was conducted to confirm the activity of certain therapeutic compounds in preventing or inhibiting IAPP-associated fibril formation in accordance with the present disclosure by determining the presence or absence of […] conformation.
Instrument: JASCO J-715 Spectropolarimeter
Cell cuvette: Hellma quartz (QS) with 1.0 mm pathlength
Wavelength interval: 250 nm-190 nm
Scanning speed: 20 nm/min
The assay, a co-incubation procedure, examines the ability of a compound or substance to inhibit the assembly of amyloid fibrils, e.g., to test for the presence of the amyloidotic β-sheet conformation in the presence of soluble IAPP. Samples are run in the presence and absence (i.e., water alone) of buffering agent, which is done to determine if competitive effects are seen with the ionic buffer (usually phosphate).
Add components used at a molar ratio of 1:10 [ peptide:compound]; add 10 μL of 10 mg/mL IAPP stock solution (final […] peptide) to the aqueous solution containing compound to a final volume of 400 μL. The pH of the final assay solution is measured to ensure there is no fluctuation and the spectrum is accumulated using the parameters as shown above.
Add desired amount of compound to achieve a 1:10 molar ratio in 10 mM phosphate buffer, pH 7. Add 10 μL of 10 mg/mL IAPP stock solution (final peptide 100 μg) to the phosphate buffered solution containing the compound and bring to a final volume of 400 μL. The pH of the final assay solution is measured to ensure there is no fluctuation and the spectrum is accumulated using the parameters as shown above.
In both assays, a control sample is run with each test group. This control contains peptide only in water or buffer at a similar final volume of 400 μl. Spectra for the control are collected initially (first run) and at the end of the test (final run) to ensure that the peptide has not undergone extensive aggregation during the course of the assay. Spectra for the controls are used to compare with the measurements obtained with the treated samples.
Make fresh 1 mg/mL stock solution of IAPP in 10 mM phosphate buffer, pH 7. Add desired amount of compound to achieve a 1:10 molar ratio in 10 mM phosphate buffer, pH 7. Incubate for 3 days at room temperature. Make up to final volume of 400 μL with 10 mM phosphate buffer, pH 7. The pH of the final assay solution is measured to ensure there is no fluctuation and the spectrum is accumulated using the parameters as shown above.
A similar control is run for comparative purposes.
Plots of the spectra (control and treated) are individually assembled and the changes in ellipticity at 218 nm are examined. This minimum is directly correlated with the amount of β-sheet present in the sample. Changes in either a positive or negative direction are noted and a relative value (“active” or “not active”) assigned to the compound as a measure of activity. In a subsequent experiment with the compounds at a molar ratio of 1:5 [ peptide:compound], the degree of randomness was noted, an indication of the ability of the compounds to prevent amyloid aggregation. A more positive number indicates less β-sheet formation. The ability of a compound to prevent β-sheet formation for at least 24 h is important, as the non-aggregated amyloid fibrils will be excreted in the soluble form. In the control noted below, the decrease in CD (mdegs) may indicate that some of the peptide is aggregating under these conditions.
Background: CD spectra are sensitive to the conformation of chiral molecules.

Test [3] addresses T2, Aβ(1-40) (Homo sapiens, UniProt P05067).
T2 construct: Prepare a fresh 40 μm solution of Aβ(1-40) in 0.02M Tris, pH 7.4; made in house; host or cells: chemical synthesis (FMOC), HPLC purified
As to the kind of experiment: Circular dichroism analysis, pre-incubation assay, β-sheet at 218 nm. The following applies: CD 218 nm, 0.02M Tris pH 7.4. On the procedure:
The assay is conducted as follows:
Instrument: JASCO J-715 Spectropolarimeter.
Cell/cuvette: Hellma quartz (QS) with 1.0 mm pathlength Room temperature. Wavelength interval: 250 nm-190 nm.
Band width: 1.0 nm Response time: 1 sec Scanning speed: 20 nm/min Number of accumulations/spectrum: 5
1. Prepare a fresh 40 μm solution of Aβ(1-40) in 0.02M Tris, pH 7.4.
2. Prepare a 1 mM solution of test compounds in 0.02M Tris, pH 7.4.
3. Combine equal volumes of the Aβ(1-40) and test compound solutions.
4. Incubate the mixtures for 19 h.
5. Take the CD spectrum using the parameters above.
6. Return the mixtures to the incubator and incubate to 43 h.
7. Take the CD spectrum using the parameters above. • Inhibition of Aβ40 assembly/aggregation is determined by comparing the amount of b-sheet structure) appearing at lambda=218 nm) obtained in control and in treated sample at each timepoint.

For test [4], the target named is T3, Aβ42 peptide (Homo sapiens, UniProt P05067).
T3 construct: Stock solution of Aβ42 or Aβ40 peptide at 5 mg/ml in distilled water, pH 7; made in house; host or cells: chemical synthesis (FMOC), HPLC purified
T3 sequence (P05067 672-713 limits assumed): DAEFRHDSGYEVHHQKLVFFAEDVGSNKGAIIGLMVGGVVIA
Briefly: ELISA solubility assay (Aβ fibril formation). The following applies: 1:10 peptide:compound, overnight at room temperature, 10 mM phosphate buffer. On the procedure: The assay was conducted as follows. Stock solution of Aβ42 peptide at 5 mg/ml in distilled water, pH 7, and stock solutions of each test compound at 1 mg/ml in distilled water, pH 7 were prepared. • 1. A 10 μg sample of peptide was mixed with compound at a molar ratio of 1:10 [ peptide:compound] in 500 μl of 10 mM phosphate buffer. Control samples contained peptide only. • 2. The mixture was incubated overnight at room temperature without agitation. • 3. The incubated mixture was centrifuged at 14,000 rpm (Eppendorf microfuge) for 5 minutes to separate the soluble peptide. • 4. 400 μl aliquots of supernatant were removed for ELISA assay.
ELISA • 1. 100 μl of prepared samples were coated in 96 wells NUNC microplates (each sample tested in triplicate) • 2. The plate was incubated at 37° C. for 3 hours, then at 4° C. overnight. • 3. The wells were washed twice with 0.05% Tween 20 in phosphate buffered saline. • 4. 250 μl of 3% skim milk powder in PBS was used to block non-specific binding to the wells (at 37° C. for 1.5 hours) • 5. The wells were washed with 0.05% Tween 20/PBS twice. • 6. A 100 μl aliquot of diluted (final dilution 1:100 in PBS) mouse monoclonal anti-Aβ antibody (purchased from DAKO recognizing the N-terminal residues 1-10) was added to each well. The antibody was then incubated at 37 C for 2 Hours. • 7. The wells were washed with 0.05% Tween 20/PBS six times (5 min/wash). • 8. Visualization was performed using 100 μl of diluted goat anti-mouse IgG (H^+ L) conjugated with alkaline phosphatase (purchased from BioRad) was added to each well. The plate was incubated at 37° C. for 1 hour. • 9. The wells were washed with 0.05% Tween 20/PBS six times (5 min/wash). • 10. The color reaction was developed using 100 μl of alkaline phosphatase substrate (purchased from BioRad) which was added to each well. • 11. The relative amounts of Aβ were obtained by measuring the OD of the sample at 405 nm using a standard ELISA plate reader.
Compounds were characterized as “active” if 40-50% of Aβ42 remained in the supernatant.

SMILES strings stand for the structures.

T2 sequence (P05067 672-711 limits assumed): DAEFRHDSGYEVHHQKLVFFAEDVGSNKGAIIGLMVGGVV

`Cl.c1ccc2c(c1)CCNC2` [LVIX, 1,2,3,4-tetrahydroisoquinoline, hydrochloride]: the “IAPP-associated fibril assembly (ThT fluorescence)” value (from here on “IAPP-associated fibril assembly”) in test [1] is given as “inhibit or prevent IAPP-associated fibril assembly”. In test [2], the “Conformation at 24 h” value is recorded as “β”, the “CD at 24 h” value is on record as “(−1.5) mdegs”, the “Conformation at 48 h” value was “β” and the “CD at 48 h” value is −1.3 mdegs. For the same compound, in test [2], the “Conformation at T0” value is given as “Random” and the “Activity (change in ellipticity at 218 nm)” value is listed as “Active”.
For `O=S(=O)(O)CCCNCCCO` [LVX, 3-(3-hydroxy-1-propyl)amino-1-propanesulfonic acid], the “IAPP-associated fibril assembly” value in test [1] is given as “inhibit or prevent IAPP-associated fibril assembly”. In test [2], the “Conformation at 24 h” value is on record as “Random”, the “Conformation at 48 h” value is on record as “β”, the “CD at 48 h” value is recorded as −1.7 mdegs and the “Conformation at T0” value is recorded as “Random”.
Consider `O=S(=O)(O)NC1CCCCC1` [LVXI, cyclohexylsulfamic acid], for which the “IAPP-associated fibril assembly” value in test [1] is “inhibit or prevent IAPP-associated fibril assembly”. Also, in test [2], the “Conformation at 24 h” value was “β”, the “CD at 24 h” value is “(−1.1) mdegs”, the “Conformation at 48 h” value is recorded as “β” and the “CD at 48 h” value was −0.8 mdegs. Also, in test [2], the “Conformation at T0” value was “Random” and the “Activity (change in ellipticity at 218 nm)” value is “Active”.
Take `N[C@@H](COP(=O)(O)O)C(=O)O` [LVXII, O-phospho-L-serine]: the “IAPP-associated fibril assembly” value in test [1] is on record as “inhibit or prevent IAPP-associated fibril assembly”. In test [2], the “Conformation at 24 h” value is listed as “Random”, the “Conformation at 48 h” value was “β”, the “CD at 48 h” value is recorded as −2.0 mdegs and the “Conformation at T0” value is “Random”.
On to `COc1ccc(S(=O)(=O)O)c2cccnc12` [LVXIV, 8-methoxyquinoline-5-sulfonic acid], for which the “IAPP-associated fibril assembly” value in test [1] is reported as “inhibit or prevent IAPP-associated fibril assembly”. Also, in test [2], the “Conformation at 24 h” value is listed as “β”, the “CD at 24 h” value is recorded as “(−1.3) mdegs”, the “Conformation at 48 h” value is “β” and the “CD at 48 h” value is given as −0.8 mdegs. Also, the “Conformation at T0” value in test [2] is “Random”.
As for `O=S(=O)(O)CCCN1CC=C(c2ccccc2)CC1` [LVXV, 4-Phenyl-1-(3′-sulfopropyl)-1,2,3,6-tetrahydropyridine], in test [1], the “IAPP-associated fibril assembly” value is listed as “inhibit or prevent IAPP-associated fibril assembly”. Also, in test [2], the “Conformation at 24 h” value is listed as “Random”, the “Conformation at 48 h” value is given as “β”, the “CD at 48 h” value is reported as −1.8 mdegs and the “Conformation at T0” value is listed as “Random”. In addition, in test [3], the “relative inhibition compared to Aβ alone, incubation time 0 h” value is given as “+ (+: 0-25%)”; the “relative inhibition compared to Aβ alone, incubation time 19 h” value is reported as “++++ (++++: 75-100%)”; the “relative inhibition compared to Aβ alone, incubation time 43 h” value was “++ (++: 25-50%)”.
For `NCC(O)CS(=O)(=O)O` (centres unmarked) [LVXVI, 3-amino-2-hydroxy-1-propanesulfonic acid], the “IAPP-associated fibril assembly” value in test [1] is listed as “inhibit or prevent IAPP-associated fibril assembly”. Besides, in test [3], the “relative inhibition compared to Aβ alone, incubation time 0 h” value is reported as “+ (+: 0-25%)”; the “relative inhibition compared to Aβ alone, incubation time 19 h” value is listed as “+++ (+++: 50-75%)”; the “relative inhibition compared to Aβ alone, incubation time 43 h” value is given as “++ (++: 25-50%)”.
For the compound `CN(C)CCCS(=O)(=O)O` [LVXVII, 3-dimethylamino-1-propanesulfonic acid], the “IAPP-associated fibril assembly” value in test [1] is “inhibit or prevent IAPP-associated fibril assembly”. Besides, in test [2], the “Conformation at 24 h” value was “β”, the “CD at 24 h” value was “(−1.7) mdegs”, the “Conformation at 48 h” value is “β” and the “CD at 48 h” value was −1.5 mdegs. Moreover, in test [2], the “Conformation at T0” value is “Random”.
For the compound `C=CC(=O)NC(C)(C)CS(=O)(=O)O` [XXI, 2-acrylamido-2-methyl-1-propanesulfonic acid], the “Aβ42 remaining in the supernatant (activity class)” value in test [4] is “Active”.
The same measure, in the same setting: for `CC12CC3CC(C)(C1)CC(NCCCS(=O)(=O)O)(C3)C2` [XXIV, 3-[(−3,5-dimethyl-1-adamantyl)-amino]-1-propanesulfonic acid] the value was “Active”.

These data come from patent US20110281951A1, “Compositions and methods for treating amyloidosis” (priority 1999, published 2011).
